# Laboratory results as given in paper PMC11502347 (Frontiers in Microbiology, 2024).
# Tests used:
# [1] = system: intramacrophagic Mtb; set-up: method as in Matsumoto et al. (2006); settings: at a concentration of 1 μg/mL; experimental conditions not identical; ref Matsumoto et al. (2006); cited from earlier work
# [2] = system: Mtb CF 61 (MDR); assay type: cell-based, Mycobacterium tuberculosis; settings: MDR clinical isolate; REMA, 7 days
# [3] = system: Mtb CF 48 (MDR); assay type: cell-based, Mycobacterium tuberculosis; settings: MDR clinical isolate; REMA, 7 days
# [4] = system: Mtb CF 165 (MDR); assay type: cell-based, Mycobacterium tuberculosis; settings: MDR clinical isolate; REMA, 7 days
# [5] = system: Mtb CF 171 (MDR); assay type: cell-based, Mycobacterium tuberculosis; settings: MDR clinical isolate; REMA, 7 days
# [6] = system: Mtb CF 162 (MDR); assay type: cell-based, Mycobacterium tuberculosis; settings: MDR clinical isolate; REMA, 7 days
# [7] = system: Mtb CF 105 (MDR); assay type: cell-based, Mycobacterium tuberculosis; settings: MDR clinical isolate; REMA, 7 days
# [8] = system: Mtb CF 169 (Pre-XDR); assay type: cell-based, Mycobacterium tuberculosis; settings: Pre-XDR clinical isolate; REMA, 7 days
# [9] = system: Mtb CF 81 (Pre-XDR); assay type: cell-based, Mycobacterium tuberculosis; settings: Pre-XDR clinical isolate; REMA, 7 days
# [10] = system: Mtb H37Rv; assay: microbe, parasite or virus in culture; assay type: cell-based, Mycobacterium tuberculosis; settings: for CIM90 Mtb H37Rv: Sensitive strain, REMA, 7 days; for MIC90: Mycobacterium tuberculosis, H37RV, Table 3
# [11] = system: M. smegmatis; assay type: cell-based, Mycobacterium smegmatis; settings: Sensitive; REMA, 2 days
# [12] = system: M. bovis; assay type: cell-based, Mycobacterium bovis; settings: Sensitive; REMA, 7 days
# [13] = system: Klebsiella pneumoniae subsp. pneumoniae ATCC 13883 T; assay: microbe, parasite or virus in culture; assay type: cell-based; settings: ATCC13883
# [14] = system: Klebsiella oxytoca CCT 0182; assay: microbe, parasite or virus in culture; assay type: cell-based; settings: CCT0182
# [15] = system: Staphylococcus saprophyticus subsp. saprophyticus ATCC 15305; assay: microbe, parasite or virus in culture; assay type: cell-based; settings: ATCC15305
# [16] = system: Staphylococcus epidermidis ATCC 14990 T; assay: microbe, parasite or virus in culture; assay type: cell-based; settings: ATCC14990
# [17] = system: Enterobacter cloacae subsp. cloacae ATCC 13883 T; assay: microbe, parasite or virus in culture; assay type: cell-based; settings: ATCC13883
# [18] = system: Enterobacter aerogenes ATCC 13048 T; assay: microbe, parasite or virus in culture; assay type: cell-based; settings: Klebsiella aerogenes, ATCC13048
# [19] = system: Enterococcus faecium NCTC 7171 T; assay: microbe, parasite or virus in culture; assay type: cell-based; settings: NCTC7171
# [20] = system: Enterococcus faecalis ATCC 29212; assay: microbe, parasite or virus in culture; assay type: cell-based; settings: ATCC29212
# [21] = system: Proteus mirabilis ATCC 29906 T; assay: microbe, parasite or virus in culture; assay type: cell-based; settings: ATCC29906
# [22] = system: Citrobacter freundii ATCC 8030 T; assay: microbe, parasite or virus in culture; assay type: cell-based; settings: ATCC8030
# [23] = system: Murine macrophage J774.A1; assay: cells; assay type: cell-based; settings: Mus musculus, cytotoxicity, resazurin, exposure 24 and 72 h, which one not given
# [24] = system: MRC-5 fibroblasts; assay: cells; assay type: cell-based; settings: Homo sapiens, MRC5; cytotoxicity, resazurin; exposure 24 and 72 h, which one not given
# [25] = system: Mtb H37Rv; assay: Checkerboard assay of Bfx with RFP; assay type: cell-based, Mycobacterium tuberculosis; settings: for MIC90: Mycobacterium tuberculosis, H37RV, compound alone, Table S1
# Description: To evaluate the interaction between Bfx and RFP, a checkerboard assay was conducted following the methodology proposed by Berenbaum ([Berenbaum, 1978]).Test compounds were serially diluted in Middlebrook 7H9 broth and arranged in a 96-well plate, starting with 2x MIC for each compound. RFP was also diluted horizontally based on its MIC90. The combinations of different concentrations of Bfx and RFP were incubated with Mtb (5 × 10⁵ CFU/mL) at 37°C and 5% CO₂ for 7 days. Post-incubation, 0.01% resazurin was added, and fluorescence readings were taken after 24 h to determine the Fractional Inhibitory Concentration Index (FICI). The combined effects of the compound combinations were classified according to the Fractional Inhibitory Concentration Index (FICI):
# FICI=MICofdrug1incombination/MICofdrug1+MICofdrug2incombination/MICofdrug1
# [26] = system: intracellular Mtb H37Rv in J774.A1 macrophages; assay: Intracellular antimycobacterial activity in infected macrophages; assay type: cell-based, Mycobacterium tuberculosis; settings: 10x MIC, 72 h, CFU count
# Description: Murine macrophage J774.A1 cells (1 × 10^6 cells/mL) were seeded in 24-well plates and incubated as previously described. After 24 h, the supernatant was discarded, and 1 mL of Mtb inoculum (2 × 10^6 CFU/mL) was added to the wells. The plate was incubated for 2 h to facilitate infection. Subsequently, the supernatant was removed, and the cells were washed with PBS. An amikacin solution (200 μg/mL) was added to ensure the sterility of the extracellular environment. After 2 h, the wells were washed, and treatments were applied (1x, 5x, and 10x MIC90 of Bfx or RFP). The cultures were then incubated for 72 h. After incubation, the cells were lysed using a Triton solution, and the supernatant was collected, serially diluted, and plated on Middlebrook 7H11 medium supplemented with 10% OADC. These plates were incubated for 20–30 days until colony-forming units (CFU) were counted ([Solcia et al., 2021]).
# [27] = system: Mtb H37Rv; assay: In vivo infection and treatment, BALB/c mice; settings: daily oral 4 weeks, 5n 200 mg/kg, RFP 15 mg/kg; for reduction of bacterial load in the lungs: intranasal infection, 5b
# [28] = system: Candida albicans ATCC 90028; assay: microbe, parasite or virus in culture; assay type: cell-based; settings: ATCC90028, Sabouraud broth, 48 h
# [29] = system: Gram-negative, Gram-positive bacteria, and fungi, including Candida albicans; assay: microbe, parasite or virus in culture; assay type: cell-based; settings: all the bacterial and fungal strains tested (Table 2), read-out: MIC90 for all species analyzed
smiles,measurement,setting,value
O=[N+]([O-])c1cn2c(n1)OC[C@@H](OCc1ccc(OC(F)(F)F)cc1)C2 [pretomanid],intramacrophagic inhibition,[1],0.2 log₁₀ CFU/mL
"NCC[C@H](O)C(=O)N[C@@H]1C[C@H](N)[C@@H](O[C@H]2O[C@H](CN)[C@@H](O)[C@H](O)[C@H]2O)[C@H](O)[C@H]1O[C@H]1O[C@H](CO)[C@@H](O)[C@H](N)[C@H]1O [AMK, amikacin]",CIM90 CF 61,[2],"> 42,69 μM"
same,CIM90 CF 48,[3],"12,27 ± 6,77 μM"
same,CIM90 CF 165,[4],"5,33 ± 0,95 μM"
same,CIM90 CF 171,[5],"0,24 ± 0,10 μM"
same,CIM90 CF 162,[6],"> 42,69 μM"
same,CIM90 CF 105,[7],"7,54 ± 11,48 μM"
same,CIM90 CF 169,[8],"0,36 ± 0,11 μM"
same,CIM90 CF 81,[9],"19,52 ± 12,55 μM"
same,CIM90 Mtb H37Rv,[10],"3,0 ± 1,00 μM"
same,CIM90 M. smegmatis,[11],"6,0 ± 2,00 μM"
same,CIM90 M. bovis,[12],"1,5 ± 0,50 μM"
"CO[C@H]1/C=C/O[C@@]2(C)Oc3c(C)c(O)c4c(O)c(c(/C=N/N5CCN(C)CC5)c(O)c4c3C2=O)NC(=O)/C(C)=C\C=C\[C@H](C)[C@H](O)[C@@H](C)[C@@H](O)[C@@H](C)[C@H](OC(C)=O)[C@@H]1C [RFP, rifampicin]",CIM90 CF 61,[2],"> 30,38 μM"
same,CIM90 CF 48,[3],"> 30,38 μM"
same,CIM90 CF 165,[4],"> 30,38 μM"
same,CIM90 CF 171,[5],"> 30,38 μM"
same,CIM90 CF 162,[6],"> 30,38 μM"
same,CIM90 CF 105,[7],"> 30,38 μM"
same,CIM90 CF 169,[8],"6,95 ± 0,19 μM"
same,CIM90 CF 81,[9],"> 30,38 μM"
same,MIC90,[10],0.05 µM
same,CIM90 Mtb H37Rv,[10],"0,05 ± 0,01 μM"
same,CIM90 M. smegmatis,[11],"1,21 ± 0,00 μM"
same,CIM90 M. bovis,[12],"0,10 ± 0,01 μM"
same,MIC90,[13],5.1 µM
same,MIC90,[14],7.5 µM
same,MIC90,[15],0.009 µM
same,MIC90,[16],0.001 µM
same,MIC90,[17],> 100 µM
same,MIC90,[18],> 100 µM
same,MIC90,[19],> 100 µM
same,MIC90,[20],0.004 µM
same,MIC90,[21],19.4 µM
same,MIC90,[22],38.9 µM
same,IC50,[23],> 122 µM
same,IC50,[24],> 122 µM
same,MIC90,[25],0.05 µM
same,MIC90 combined,[25]; in the combination 5b + RFP,"0,00098 µM"
same,MIC90 combined,[25]; in the combination 5n + RFP,"0,00098 µM"
same,inhibition of bacterial load within macrophages,[26],0.7 log10
same,reduction of the pulmonary load,[27]; abstract,1.23 log10 CFU/mL
same,reduction of bacterial load in the lungs,[27],1.23 log10
"NNC(=O)c1ccncc1 [INH, isoniazid]",CIM90 CF 61,[2],"> 182,30 μM"
same,CIM90 CF 48,[3],"> 182,30 μM"
same,CIM90 CF 165,[4],"71,56 ± 24,71 μM"
same,CIM90 CF 171,[5],"> 182,30 μM"
same,CIM90 CF 162,[6],"> 182,30 μM"
same,CIM90 CF 105,[7],"> 182,30 μM"
same,CIM90 CF 169,[8],"> 182,30 μM"
same,CIM90 CF 81,[9],"> 182,30 μM"
same,MIC90,[10],0.95 µM
same,CIM90 Mtb H37Rv,[10],"0,95 ± 0,43 μM"
same,CIM90 M. smegmatis,[11],"2,0 ± 0,50 μM"
same,MIC90,[13],> 500 µM
same,MIC90,[14],> 500 µM
same,MIC90,[15],> 500 µM
same,MIC90,[16],> 500 µM
same,MIC90,[17],> 500 µM
same,MIC90,[18],> 500 µM
same,MIC90,[19],> 500 µM
same,MIC90,[20],> 500 µM
same,MIC90,[21],> 500 µM
same,MIC90,[22],> 500 µM
same,IC50,[23],> 729 µM
same,IC50,[24],> 729 µM
C[C@]1(COc2ccc(N3CCC(Oc4ccc(OC(F)(F)F)cc4)CC3)cc2)Cn2cc([N+](=O)[O-])nc2O1 [delamanid],intramacrophagic inhibition,[1],0.7 log₁₀ CFU/mL
"CC(=O)NC[C@H]1CN(c2ccc(N3CCOCC3)c(F)c2)C(=O)O1 [LNZ, linezolid]",CIM90 CF 48,[3],"33,88 ± 1,27 μM"
same,CIM90 CF 165,[4],"0,95 ± 0,01 μM"
same,CIM90 CF 171,[5],"0,58 ± 0,02 μM"
same,CIM90 CF 162,[6],"0,41 ± 0,03 μM"
same,CIM90 CF 105,[7],"4,15 ± 0,52 μM"
same,CIM90 CF 169,[8],"0,95 ± 0,59 μM"
same,CIM90 CF 81,[9],"0,47 ± 0,32 μM"
same,CIM90 Mtb H37Rv,[10],"0,5 ± 0,20 μM"
same,CIM90 M. smegmatis,[11],"1,0 ± 0,20 μM"
same,CIM90 M. bovis,[12],"0,25 ± 0,1 μM"
O=C(Nc1ccc(N2CCSCC2)c(F)c1)c1ccc2no[n+]([O-])c2c1 [Compound 5b],CIM90 CF 61,[2],"0,28 ± 0,02 μM"
same,CIM90 CF 48,[3],"22,76 ± 13,20 μM"
same,CIM90 CF 105,[7],"> 66,78 μM"
same,CIM90 CF 169,[8],"0,40 ± 0,03 μM"
same,CIM90 CF 81,[9],"0,27 ± 0,00 μM"
same,MIC90,[10],0.7 µM
same,CIM90 M. smegmatis,[11],"24,17 ± 13,00 μM"
same,MIC90,[13],> 200 µM
same,MIC90,[14],> 200 µM
same,MIC90,[15],> 200 µM
same,MIC90,[16],> 200 µM
same,MIC90,[17],> 200 µM
same,MIC90,[18],> 200 µM
same,MIC90,[19],> 200 µM
same,MIC90,[20],> 200 µM
same,MIC90,[21],> 200 µM
same,MIC90,[22],> 200 µM
same,MIC90,[28],> 200 µM
same,MIC90,[29],> 200 µM
same,IC50,[23],40.8 µM
same,IC50,[24],57.1 µM
same,FICI,[25]; Bfx combined with RFP,0.11
same,Results (interaction with RFP),[25]; Bfx combined with RFP,Synergistic (FICI values less than 0.5 indicate synergy)
same,MIC90,[25],0.7 µM
same,MIC90 combined,[25]; in the combination 5b + RFP,"0,0625 µM"
same,inhibition of bacterial load within macrophages,[26],2.3 log10
same,reduction of bacterial load in the lungs,[27],1.45 log10
